Data reported in ChEMBL document CHEMBL1127101, “Interaction of rigid polyamine analogues with the NMDA receptor complex from rat brain” (Bioorg Med Chem Lett, 1993).

Legend:
Glutamate NMDA receptor [1] = test: Tested for the binding of [3H]dizocilpine to DEPC (diethylpyrocarbonate) membranes of rat
Glutamate NMDA receptor [2] = test: Tested for the binding of [3H]dizocilpine to NMDA receptor in rat brain membranes in the presence of 500 uM spermidine; assay type: cell membranes
[3] = Tested for the increase in [Ca2+] produced by 30 uM of the compound; assay type: functional

SMILES	IC50 (Glutamate NMDA receptor [1])	IC50 (Glutamate NMDA receptor [2])	Increase [3]
Cc1cc2nc3cc(C)c(N)cc3[n+](-c3ccccc3)c2cc1N	3.95 µM	2.21 µM	77.9%
CC[n+]1c(-c2ccccc2)c2cc(N)ccc2c2ccc(N)cc21 [HOMIDIUM BROMIDE]	3.13 µM	7.34 µM	84.7%
Nc1ccc2nc3ccc(N)cc3[n+](-c3ccccc3)c2c1 [PHENOSAFRANINE]	2.7 µM	4.33 µM	78.4%
CC[N+](C)(CC)CCC[n+]1c(-c2ccccc2)c2cc(N)ccc2c2ccc(N)cc21 [PROPIDIUM]	6.8 µM	> 1000 µM	97.6%
